Data published in the kinase profiling compilation of Christmann-Franck et al. (2016).

Assays:
Assay in all cases: radiometric filter-binding kinase assay
[1] = tested on: AKT1 (human), P31749 [S473D]
[2] = biological target: BRSK2 (human) (UniProt Q8IWQ3)
[3] = biological target: CLK2 (human) (UniProt P49760)
[4] = biological target: CSNK2A1 (human) (UniProt P68400)
[5] = biological target: DAPK1 (human) (UniProt P53355)
[6] = biological target: DYRK1A (human) (UniProt Q13627)
[7] = biological target: DYRK3 (human) (UniProt O43781)
DYRK3 (human), sequence (O43781 whole entry, looked up): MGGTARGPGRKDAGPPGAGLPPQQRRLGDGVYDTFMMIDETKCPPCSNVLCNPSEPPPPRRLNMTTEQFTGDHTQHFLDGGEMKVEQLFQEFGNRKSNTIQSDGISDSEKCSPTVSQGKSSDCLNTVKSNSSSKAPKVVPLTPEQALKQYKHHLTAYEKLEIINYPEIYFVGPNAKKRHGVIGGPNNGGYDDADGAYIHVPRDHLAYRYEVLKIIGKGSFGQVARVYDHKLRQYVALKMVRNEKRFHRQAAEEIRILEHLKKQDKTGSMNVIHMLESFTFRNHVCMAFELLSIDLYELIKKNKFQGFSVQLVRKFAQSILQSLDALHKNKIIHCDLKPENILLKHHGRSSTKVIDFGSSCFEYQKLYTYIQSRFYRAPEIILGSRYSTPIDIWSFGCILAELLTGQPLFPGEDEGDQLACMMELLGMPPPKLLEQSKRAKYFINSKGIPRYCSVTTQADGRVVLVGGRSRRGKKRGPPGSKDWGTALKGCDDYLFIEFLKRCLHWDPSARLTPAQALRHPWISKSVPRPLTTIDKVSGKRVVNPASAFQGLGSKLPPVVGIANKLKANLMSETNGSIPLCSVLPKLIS

[8] = biological target: EPHB3 (human) (UniProt P54753)
[9] = biological target: IKBKB (human) (UniProt O14920)
[10] = biological target: IKBKE (human) (UniProt Q14164)
[11] = biological target: IRAK4 (human) (UniProt Q9NWZ3)
IRAK4 (human), sequence (Q9NWZ3 whole entry, looked up): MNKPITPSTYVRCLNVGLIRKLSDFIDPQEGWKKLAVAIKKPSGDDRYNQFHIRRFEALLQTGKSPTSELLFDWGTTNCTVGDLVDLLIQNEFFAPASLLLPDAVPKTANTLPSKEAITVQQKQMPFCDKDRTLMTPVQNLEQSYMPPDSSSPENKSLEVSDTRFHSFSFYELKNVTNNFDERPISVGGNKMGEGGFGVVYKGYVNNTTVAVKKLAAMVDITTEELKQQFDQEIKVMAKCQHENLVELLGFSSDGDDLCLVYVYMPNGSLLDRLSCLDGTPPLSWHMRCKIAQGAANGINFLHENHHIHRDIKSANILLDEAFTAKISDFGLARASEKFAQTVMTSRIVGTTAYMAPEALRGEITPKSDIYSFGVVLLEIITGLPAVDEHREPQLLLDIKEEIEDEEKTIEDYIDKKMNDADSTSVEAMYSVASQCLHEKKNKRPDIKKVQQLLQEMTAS

[12] = biological target: MAP2K6 (human) (UniProt P52564)
MAP2K6 (human), sequence (P52564 whole entry, looked up): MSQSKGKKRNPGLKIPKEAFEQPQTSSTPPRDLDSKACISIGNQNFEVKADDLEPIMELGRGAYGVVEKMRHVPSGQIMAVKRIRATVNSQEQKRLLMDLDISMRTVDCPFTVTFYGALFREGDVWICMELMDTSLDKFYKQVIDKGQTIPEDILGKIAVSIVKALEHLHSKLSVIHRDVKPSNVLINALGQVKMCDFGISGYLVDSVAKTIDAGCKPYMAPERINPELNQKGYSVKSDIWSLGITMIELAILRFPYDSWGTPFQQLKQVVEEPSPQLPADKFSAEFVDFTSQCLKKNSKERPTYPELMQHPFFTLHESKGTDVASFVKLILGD

[13] = biological target: MAP3K11 (human) (UniProt Q16584)
[14] = biological target: MAP3K7 TAB1 (human) (UniProt Q15750+O43318)
[15] = biological target: MAPK11 (human) (UniProt Q15759)
[16] = biological target: MAPK12 (human) (UniProt P53778)
[17] = biological target: MAPK14 (human) (UniProt Q16539)
[18] = biological target: MAPK3 (human) (UniProt P27361)
[19] = biological target: MAPK8 (human) (UniProt P45983)
[20] = biological target: MAPKAPK3 (human) (UniProt Q16644)
[21] = biological target: MAPKAPK5 (human) (UniProt Q8IW41)
MAPKAPK5 (human), sequence (Q8IW41 whole entry, looked up): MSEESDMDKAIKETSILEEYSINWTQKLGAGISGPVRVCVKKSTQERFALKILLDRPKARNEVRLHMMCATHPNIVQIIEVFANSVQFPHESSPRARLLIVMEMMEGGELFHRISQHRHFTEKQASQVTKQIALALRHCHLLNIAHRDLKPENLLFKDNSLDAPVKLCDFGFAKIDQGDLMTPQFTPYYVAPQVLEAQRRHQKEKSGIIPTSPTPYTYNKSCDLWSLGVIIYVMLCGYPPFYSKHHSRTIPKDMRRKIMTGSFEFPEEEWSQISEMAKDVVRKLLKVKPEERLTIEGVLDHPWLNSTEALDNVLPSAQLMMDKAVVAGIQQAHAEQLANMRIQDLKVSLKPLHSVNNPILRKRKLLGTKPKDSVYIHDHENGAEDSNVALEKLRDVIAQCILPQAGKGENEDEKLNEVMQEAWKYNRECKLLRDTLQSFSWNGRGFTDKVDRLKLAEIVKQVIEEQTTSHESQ

[22] = biological target: MKNK2 (human) (UniProt Q9HBH9)
[23] = biological target: NTRK1 (human) (UniProt P04629)
NTRK1 (human), sequence (P04629 whole entry, looked up): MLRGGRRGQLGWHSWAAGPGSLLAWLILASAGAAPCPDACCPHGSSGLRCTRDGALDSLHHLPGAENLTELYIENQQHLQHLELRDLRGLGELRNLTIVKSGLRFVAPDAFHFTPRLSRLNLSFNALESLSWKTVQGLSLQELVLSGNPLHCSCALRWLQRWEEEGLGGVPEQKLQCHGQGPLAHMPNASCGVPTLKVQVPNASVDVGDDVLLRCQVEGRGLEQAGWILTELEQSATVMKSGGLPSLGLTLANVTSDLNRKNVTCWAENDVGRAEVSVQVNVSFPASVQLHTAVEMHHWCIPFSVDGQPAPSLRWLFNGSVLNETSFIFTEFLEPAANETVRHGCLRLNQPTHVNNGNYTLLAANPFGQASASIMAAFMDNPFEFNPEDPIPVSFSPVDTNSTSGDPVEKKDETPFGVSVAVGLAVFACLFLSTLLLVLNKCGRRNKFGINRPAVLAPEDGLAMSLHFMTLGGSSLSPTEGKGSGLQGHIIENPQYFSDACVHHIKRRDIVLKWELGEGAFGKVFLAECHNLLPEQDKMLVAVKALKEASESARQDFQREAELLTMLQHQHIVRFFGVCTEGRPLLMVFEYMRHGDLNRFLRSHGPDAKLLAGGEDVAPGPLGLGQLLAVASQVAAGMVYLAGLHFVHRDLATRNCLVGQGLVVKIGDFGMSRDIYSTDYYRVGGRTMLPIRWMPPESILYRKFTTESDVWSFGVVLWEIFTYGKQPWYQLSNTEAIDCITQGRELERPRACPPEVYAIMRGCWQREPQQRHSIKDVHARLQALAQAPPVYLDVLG

[24] = biological target: PAK4 (human) (UniProt O96013)
[25] = biological target: PIM1 (human) (UniProt P11309)
PIM1 (human), sequence (P11309 whole entry, looked up): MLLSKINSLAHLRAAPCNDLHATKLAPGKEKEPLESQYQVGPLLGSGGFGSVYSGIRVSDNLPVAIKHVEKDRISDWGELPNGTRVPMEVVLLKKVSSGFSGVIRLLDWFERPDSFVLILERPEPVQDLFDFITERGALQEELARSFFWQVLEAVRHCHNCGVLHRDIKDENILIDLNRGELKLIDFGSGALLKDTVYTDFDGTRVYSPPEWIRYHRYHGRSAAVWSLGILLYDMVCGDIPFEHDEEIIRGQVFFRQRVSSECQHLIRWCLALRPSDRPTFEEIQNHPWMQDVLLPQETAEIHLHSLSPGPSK

[26] = biological target: PIM2 (human) (UniProt Q9P1W9)
[27] = biological target: PIM3 (human) (UniProt Q86V86)
[28] = biological target: PLK1 (human) (UniProt P53350)
PLK1 (human), sequence (P53350 whole entry, looked up): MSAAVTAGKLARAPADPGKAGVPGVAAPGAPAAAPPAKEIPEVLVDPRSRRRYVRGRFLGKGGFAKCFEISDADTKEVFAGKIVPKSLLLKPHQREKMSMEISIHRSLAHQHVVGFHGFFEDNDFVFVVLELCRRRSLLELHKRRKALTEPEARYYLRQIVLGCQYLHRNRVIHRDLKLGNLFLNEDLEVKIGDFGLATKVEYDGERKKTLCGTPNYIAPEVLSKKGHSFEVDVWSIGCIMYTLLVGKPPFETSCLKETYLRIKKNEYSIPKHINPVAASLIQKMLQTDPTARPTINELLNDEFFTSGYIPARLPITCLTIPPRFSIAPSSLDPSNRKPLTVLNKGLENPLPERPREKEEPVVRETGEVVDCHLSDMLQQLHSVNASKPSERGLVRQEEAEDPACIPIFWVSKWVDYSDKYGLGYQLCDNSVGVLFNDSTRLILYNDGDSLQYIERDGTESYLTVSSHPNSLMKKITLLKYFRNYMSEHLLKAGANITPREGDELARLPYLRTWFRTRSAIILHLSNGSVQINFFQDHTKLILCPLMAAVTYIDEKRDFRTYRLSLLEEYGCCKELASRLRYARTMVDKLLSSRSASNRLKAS

[29] = tested on: ROCK2 (rat); details: accession and sequence are those of the human protein
[30] = biological target: RPS6KA1 KD1 KD2 (human) (UniProt Q15418)
[31] = biological target: RPS6KA3 KD1 KD2 (human) (UniProt P51812)
[32] = tested on: RPS6KB1 (human), P23443 [T412E]
[33] = tested on: SGK1 (human), O00141 [S422D]
[34] = biological target: STK3 (human) (UniProt Q13188)
[35] = biological target: TBK1 (human) (UniProt Q9UHD2); details: compound 10.0 µM

AKT1 (human), P31749 [S473D], sequence (P31749 whole entry S473D, looked up): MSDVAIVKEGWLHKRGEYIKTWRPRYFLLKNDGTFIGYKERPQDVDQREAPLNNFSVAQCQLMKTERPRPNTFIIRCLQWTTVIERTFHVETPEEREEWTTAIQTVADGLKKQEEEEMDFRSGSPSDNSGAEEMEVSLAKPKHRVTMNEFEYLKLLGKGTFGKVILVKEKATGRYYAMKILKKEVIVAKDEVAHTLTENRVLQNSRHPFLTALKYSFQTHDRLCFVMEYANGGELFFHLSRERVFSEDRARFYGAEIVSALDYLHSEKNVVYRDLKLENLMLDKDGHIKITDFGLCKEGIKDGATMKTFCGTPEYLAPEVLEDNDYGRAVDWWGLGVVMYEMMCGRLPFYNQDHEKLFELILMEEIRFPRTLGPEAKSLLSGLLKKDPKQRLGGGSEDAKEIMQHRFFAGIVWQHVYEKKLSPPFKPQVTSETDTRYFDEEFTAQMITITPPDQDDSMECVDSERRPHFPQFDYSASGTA
CLK2 (human), sequence (P49760 whole entry, looked up): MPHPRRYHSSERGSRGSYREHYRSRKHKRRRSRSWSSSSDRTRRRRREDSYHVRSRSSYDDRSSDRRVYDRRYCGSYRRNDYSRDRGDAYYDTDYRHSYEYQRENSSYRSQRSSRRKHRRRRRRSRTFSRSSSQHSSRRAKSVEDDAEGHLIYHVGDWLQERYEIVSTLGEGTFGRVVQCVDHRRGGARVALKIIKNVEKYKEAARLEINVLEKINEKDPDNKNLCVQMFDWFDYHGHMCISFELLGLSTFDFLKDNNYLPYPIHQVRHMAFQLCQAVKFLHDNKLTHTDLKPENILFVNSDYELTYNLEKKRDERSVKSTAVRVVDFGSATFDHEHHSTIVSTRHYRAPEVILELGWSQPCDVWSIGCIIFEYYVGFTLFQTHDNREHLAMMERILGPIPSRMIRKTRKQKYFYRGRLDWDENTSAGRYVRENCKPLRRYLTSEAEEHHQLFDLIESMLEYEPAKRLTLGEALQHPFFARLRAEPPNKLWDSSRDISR

Question: `COc1cc(C(=O)N2CCOCC2)c(F)cc1Nc1ncc(C(F)(F)F)c(NC2CC2)n1` was tested. Which residual activity ([1]; compound 1.0 µM) did it give?
Answer: The residual activity was 93%.

Question: What about the residual activity ([1]; compound 10.0 µM) of the same compound?
Answer: The residual activity was 97%.

Question: What about the residual activity ([2]; compound 1.0 µM) of the same compound?
Answer: The residual activity was 88%.

Question: And the residual activity ([2]; compound 10.0 µM)?
Answer: The residual activity was 51%.

Question: And the residual activity ([3]; compound 1.0 µM)?
Answer: The residual activity was 36%.

Question: What about the residual activity ([3]; compound 10.0 µM) of the same compound?
Answer: Its residual activity is 5%.

Question: What about the residual activity ([4]; compound 1.0 µM) of the same compound?
Answer: Its residual activity is 96%.

Question: What about the residual activity ([4]; compound 10.0 µM) of the same compound?
Answer: The residual activity was 74%.

Question: What about the residual activity ([5]; compound 1.0 µM) of the same compound?
Answer: Its residual activity is 53%.

Question: What about the residual activity ([5]; compound 10.0 µM) of the same compound?
Answer: The residual activity was 11%.

Question: And the residual activity ([6]; compound 1.0 µM)?
Answer: Its residual activity is 78%.

Question: What about the residual activity ([6]; compound 10.0 µM) of the same compound?
Answer: Its residual activity is 38%.

Question: And the residual activity ([7]; compound 1.0 µM)?
Answer: Its residual activity is 88%.

Question: And the residual activity ([7]; compound 10.0 µM)?
Answer: Its residual activity is 51%.

Question: What about the residual activity ([8]; compound 1.0 µM) of the same compound?
Answer: Its residual activity is 91%.

Question: And the residual activity ([8]; compound 10.0 µM)?
Answer: The residual activity was 105%.

Question: What about the residual activity ([9]; compound 1.0 µM) of the same compound?
Answer: The residual activity was 97%.

Question: And the residual activity ([9]; compound 10.0 µM)?
Answer: The residual activity was 89%.

Question: What about the residual activity ([10]; compound 1.0 µM) of the same compound?
Answer: Its residual activity is 94%.

Question: What about the residual activity ([10]; compound 10.0 µM) of the same compound?
Answer: The residual activity was 55%.

Question: And the residual activity ([11]; compound 1.0 µM)?
Answer: The residual activity was 90%.

Question: What about the residual activity ([11]; compound 10.0 µM) of the same compound?
Answer: Its residual activity is 93%.

Question: What about the residual activity ([12]; compound 1.0 µM) of the same compound?
Answer: Its residual activity is 71%.

Question: And the residual activity ([12]; compound 10.0 µM)?
Answer: Its residual activity is 31%.

Question: And the residual activity ([13]; compound 1.0 µM)?
Answer: The residual activity was 35%.

Question: And the residual activity ([13]; compound 10.0 µM)?
Answer: Its residual activity is 9%.

Question: What about the residual activity ([14]; compound 1.0 µM) of the same compound?
Answer: Its residual activity is 11%.

Question: And the residual activity ([14]; compound 10.0 µM)?
Answer: The residual activity was 2%.

Question: What about the residual activity ([15]; compound 1.0 µM) of the same compound?
Answer: The residual activity was 98%.

Question: What about the residual activity ([15]; compound 10.0 µM) of the same compound?
Answer: The residual activity was 101%.

Question: What about the residual activity ([16]; compound 1.0 µM) of the same compound?
Answer: Its residual activity is 98%.

Question: And the residual activity ([16]; compound 10.0 µM)?
Answer: The residual activity was 96%.

Question: What about the residual activity ([17]; compound 1.0 µM) of the same compound?
Answer: Its residual activity is 84%.

Question: And the residual activity ([17]; compound 10.0 µM)?
Answer: Its residual activity is 119%.

Question: What about the residual activity ([18]; compound 1.0 µM) of the same compound?
Answer: Its residual activity is 79%.

Question: What about the residual activity ([18]; compound 10.0 µM) of the same compound?
Answer: The residual activity was 49%.

Question: What about the residual activity ([19]; compound 1.0 µM) of the same compound?
Answer: The residual activity was 83%.

Question: And the residual activity ([19]; compound 10.0 µM)?
Answer: Its residual activity is 47%.

Question: What about the residual activity ([20]; compound 1.0 µM) of the same compound?
Answer: The residual activity was 108%.

Question: And the residual activity ([20]; compound 10.0 µM)?
Answer: The residual activity was 124%.

Question: What about the residual activity ([21]; compound 1.0 µM) of the same compound?
Answer: The residual activity was 77%.

Question: What about the residual activity ([21]; compound 10.0 µM) of the same compound?
Answer: The residual activity was 49%.

Question: And the residual activity ([22]; compound 1.0 µM)?
Answer: The residual activity was 58%.

Question: And the residual activity ([22]; compound 10.0 µM)?
Answer: Its residual activity is 22%.

Question: And the residual activity ([23]; compound 1.0 µM)?
Answer: Its residual activity is 70%.

Question: And the residual activity ([23]; compound 10.0 µM)?
Answer: The residual activity was 54%.

Question: And the residual activity ([24]; compound 1.0 µM)?
Answer: Its residual activity is 85%.

Question: What about the residual activity ([24]; compound 10.0 µM) of the same compound?
Answer: The residual activity was 42%.

Question: What about the residual activity ([25]; compound 1.0 µM) of the same compound?
Answer: Its residual activity is 101%.

Question: And the residual activity ([25]; compound 10.0 µM)?
Answer: The residual activity was 94%.

Question: What about the residual activity ([26]; compound 1.0 µM) of the same compound?
Answer: Its residual activity is 100%.

Question: What about the residual activity ([26]; compound 10.0 µM) of the same compound?
Answer: The residual activity was 107%.

Question: And the residual activity ([27]; compound 1.0 µM)?
Answer: The residual activity was 101%.

Question: What about the residual activity ([27]; compound 10.0 µM) of the same compound?
Answer: The residual activity was 78%.

Question: What about the residual activity ([28]; compound 1.0 µM) of the same compound?
Answer: The residual activity was 78%.

Question: And the residual activity ([28]; compound 10.0 µM)?
Answer: Its residual activity is 40%.

Question: And the residual activity ([29]; compound 1.0 µM)?
Answer: Its residual activity is 95%.

Question: And the residual activity ([29]; compound 10.0 µM)?
Answer: Its residual activity is 78%.

Question: And the residual activity ([30]; compound 1.0 µM)?
Answer: The residual activity was 54%.

Question: And the residual activity ([30]; compound 10.0 µM)?
Answer: Its residual activity is 14%.

Question: What about the residual activity ([31]; compound 1.0 µM) of the same compound?
Answer: Its residual activity is 77%.

Question: What about the residual activity ([31]; compound 10.0 µM) of the same compound?
Answer: Its residual activity is 25%.

Question: What about the residual activity ([32]; compound 1.0 µM) of the same compound?
Answer: Its residual activity is 89%.

Question: And the residual activity ([32]; compound 10.0 µM)?
Answer: Its residual activity is 68%.

Question: What about the residual activity ([33]; compound 1.0 µM) of the same compound?
Answer: Its residual activity is 88%.

Question: And the residual activity ([33]; compound 10.0 µM)?
Answer: The residual activity was 70%.

Question: And the residual activity ([34]; compound 1.0 µM)?
Answer: Its residual activity is 111%.

Question: What about the residual activity ([34]; compound 10.0 µM) of the same compound?
Answer: The residual activity was 92%.

Question: And the residual activity [35]?
Answer: The residual activity was 26%.
